Results published in paper PMC9653173, “Trotabresib (CC-90010) in combination with adjuvant temozolomide or concomitant temozolomide plus radiotherapy in patients with newly diagnosed glioblastoma” (Neuro-Oncology Advances, 2022).
Like-named read-outs stand apart in the source and are kept apart here.

Assays:
MYC = conditions: in vitro; ref Bristol Myers Squibb; data on file; cited from earlier work
[1] = system: patients with newly diagnosed glioblastoma; conditions: for TEAEs leading to discontinuation of the labelled study drug(s), patients: February 20, 2022 cutoff
Description: The phase Ib, dose-escalation part of this study explored escalating oral doses of trotabresib in combination with TMZ in the adjuvant setting and with TMZ plus RT in the concomitant setting. […] Dose-escalation decisions were made by the safety review committee, based on all available safety, pharmacokinetics, pharmacodynamics, and preliminary efficacy information, and a calculation of risk assessment using a Bayesian logistic regression model.
The primary endpoints of the study were to determine the safety and tolerability, maximum tolerated dose, and/or recommended phase II dose (RP2D) of trotabresib in combination with TMZ as adjuvant therapy, and with TMZ and RT as concomitant therapy. […] Trotabresib pharmacodynamics was an exploratory endpoint.
Adverse events (AEs) were classified using the Medical Dictionary for Regulatory Activities v18.1 or higher system organ class and preferred term. Severity of AEs was graded based on the patient’s symptoms according to the National Cancer Institute Common Terminology Criteria for Adverse Events v5.0.[35] Dose-limiting toxicities (DLTs) were defined as any of the toxicities described in Supplementary Table S2 occurring within the DLT assessment period (cycle 1 [28 days]), unless the event could clearly be determined to be unrelated to trotabresib. Screening MRI scans were performed after surgical resection and within 28 days (+3 days) prior to initiation of study treatment. Subsequent tumor assessments by MRI or CT were performed at week 10 during the concomitant treatment period and at the end of every other treatment cycle from cycle 2 onwards during the adjuvant and trotabresib monotherapy treatment periods. Best overall response (BOR) was evaluated as complete response (CR), partial response (PR), SD, progressive disease (PD), or not evaluable, according to Response Assessment in Neuro-Oncology criteria for high-grade glioma.[36] Plasma samples were collected during the first treatment cycle for investigation of trotabresib pharmacokinetics and pharmacodynamics. Plasma pharmacokinetic parameters assessed included peak plasma concentration (Cmax), time to peak plasma concentration (tmax), area under the plasma concentration–time curve (AUC), and terminal half-life (t½). Pharmacodynamic markers assessed included blood levels of CCR1 and HEXIM1 mRNA, which are established markers of BET inhibitor target engagement.[17],[22],[37],[38]

[2] = adjuvant overall (N = 18), related to labelled drug(s)

Cn1cc(-c2cc(S(C)(=O)=O)ccc2OCC2CC2)c2ccccc2c1=O [Trotabresib]
MYC expression (MYC): downregulated in vitro
TRAEs leading to discontinuation of TMZ, related to labelled drug(s) ([1]; adjuvant 30 mg (n = 6)): 1 (17) 1 (17) 1 (17) n (%)
TRAEs leading to discontinuation of any study drug, related to labelled drug(s) ([1]; adjuvant 30 mg (n = 6)): 1 (17) 1 (17) 1 (17) n (%)
TRAEs leading to discontinuation of trotabresib, related to labelled drug(s) ([1]; adjuvant 30 mg (n = 6)): 1 (17) 1 (17) 1 (17) n (%)
TEAEs leading to discontinuation of the labelled study drug(s), patients ([1]; adjuvant 30 mg (n = 6)): 1 (17) 1 (17) 1 (17) n (%)
TEAEs leading to discontinuation of the labelled study drug(s), patients ([1]; adjuvant 45 mg (n = 7)): 1 (14) 1 (14) 1 (14) n (%)
Recommended phase II dose (RP2D) ([1]; adjuvant (+ TMZ) and concomitant (+ TMZ + RT) settings, 4 days on/24 days off): 30 mg
Rash and other skin-related TRAEs attributed to trotabresib only ([1]; adjuvant overall): 7 (39%) n (%)
TRAEs leading to discontinuation of TMZ, related to labelled drug(s) ([1]; adjuvant overall (N = 18)): 1 (6) 1 (6) 1 (6) n (%)
TRAEs leading to discontinuation of any study drug, related to labelled drug(s) ([1]; adjuvant overall (N = 18)): 1 (6) 1 (6) 1 (6) n (%)
TRAEs leading to discontinuation of trotabresib, related to labelled drug(s) ([1]; adjuvant overall (N = 18)): 1 (6) 1 (6) 1 (6) n (%)
TEAEs leading to discontinuation of the labelled study drug(s), patients ([1]; adjuvant overall (N = 18)): 2 (11) 2 (11) 2 (11) n (%)
ALT increased TRAE, any grade [1, 2]: 1 (6) n (%)
ALT increased TRAE, grade 3/4 [1, 2]: 0 n (%)
AST increased TRAE, any grade [1, 2]: 1 (6) n (%)
AST increased TRAE, grade 3/4 [1, 2]: 0 n (%)
Acneiform dermatitis TRAE, any grade [1, 2]: 3 (17) n (%)
Acneiform dermatitis TRAE, grade 3/4 [1, 2]: 0 n (%)
Anemia TRAE, any grade [1, 2]: 4 (22) n (%)
Anemia TRAE, grade 3/4 [1, 2]: 0 n (%)
Any TRAE, any grade [1, 2]: 16 (89) n (%)
Any TRAE, grade 3/4 [1, 2]: 9 (50) n (%)
Asthenia TRAE, any grade [1, 2]: 7 (39) n (%)
Asthenia TRAE, grade 3/4 [1, 2]: 1 (6) n (%)
Blood bilirubin increased TRAE, any grade [1, 2]: 0 n (%)
Blood bilirubin increased TRAE, grade 3/4 [1, 2]: 0 n (%)
Decreased appetite TRAE, any grade [1, 2]: 6 (33) n (%)
Decreased appetite TRAE, grade 3/4 [1, 2]: 0 n (%)
Diarrhea TRAE, any grade [1, 2]: 11 (61) n (%)
Diarrhea TRAE, grade 3/4 [1, 2]: 1 (6) n (%)
Dysgeusia TRAE, any grade [1, 2]: 6 (33) n (%)
Dysgeusia TRAE, grade 3/4 [1, 2]: 0 n (%)
Dyspepsia TRAE, any grade [1, 2]: 2 (11) n (%)
Dyspepsia TRAE, grade 3/4 [1, 2]: 0 n (%)
Fatigue TRAE, any grade [1, 2]: 2 (11) n (%)
Fatigue TRAE, grade 3/4 [1, 2]: 0 n (%)
Hyperbilirubinemia TRAE, any grade [1, 2]: 6 (33) n (%)
Hyperbilirubinemia TRAE, grade 3/4 [1, 2]: 1 (6) n (%)
Hyperglycemia TRAE, any grade [1, 2]: 4 (22) n (%)
Hyperglycemia TRAE, grade 3/4 [1, 2]: 1 (6) n (%)
Hypophosphatemia TRAE, any grade [1, 2]: 2 (11) n (%)
Hypophosphatemia TRAE, grade 3/4 [1, 2]: 0 n (%)
Hypotension TRAE, any grade [1, 2]: 2 (11) n (%)
Hypotension TRAE, grade 3/4 [1, 2]: 0 n (%)
Insomnia TRAE, any grade [1, 2]: 2 (11) n (%)
Insomnia TRAE, grade 3/4 [1, 2]: 0 n (%)
Intracranial hemorrhage TRAE, any grade [1, 2]: 1 (6) n (%)
Intracranial hemorrhage TRAE, grade 3/4 [1, 2]: 1 (6) n (%)
Leukopenia TRAE, any grade [1, 2]: 1 (6) n (%)
Leukopenia TRAE, grade 3/4 [1, 2]: 0 n (%)
Lymphopenia TRAE, any grade [1, 2]: 2 (11) n (%)
Lymphopenia TRAE, grade 3/4 [1, 2]: 1 (6) n (%)
Nausea TRAE, any grade [1, 2]: 9 (50) n (%)
Nausea TRAE, grade 3/4 [1, 2]: 0 n (%)
Neutropenia TRAE, any grade [1, 2]: 5 (28) n (%)
Neutropenia TRAE, grade 3/4 [1, 2]: 3 (17) n (%)
Pruritus TRAE, any grade [1, 2]: 3 (17) n (%)
Pruritus TRAE, grade 3/4 [1, 2]: 0 n (%)
Rash TRAE, any grade [1, 2]: 5 (28) n (%)
Rash TRAE, grade 3/4 [1, 2]: 0 n (%)
Seizure TRAE, any grade [1, 2]: 0 n (%)
Seizure TRAE, grade 3/4 [1, 2]: 0 n (%)
